Data reported in patent US9783532B2, “Molecules having certain pesticidal utilities, and intermediates, compositions, and processes related thereto” (Dow AgroSciences LLC, priority 2013, dated 2017).

Legend:
Format in all cases: in vivo
[1] = system: Beet Armyworm (Spodoptera exigua) ("BAW"); test: Bioassay on beet armyworm (BAW), 128-well diet tray assay; conditions: 168 h, 50 μg/cm^2 on artificial diet, second instar BAW larvae, 25° C., five to seven days, average of eight wells, read-out: BAW % Control (or Mortality) rating
In short: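 Second-instar larvae (one to five per well) were placed on artificial diet surface-treated with 50 μg/cm^2 compound applied in 90:10 acetone-water and dried, eight wells per compound. Held at 25° C., 14:10 light-dark for five to seven days; percent mortality was scored per well and averaged over the eight wells.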

[2] = system: Cabbage Looper (Trichoplusia ni) ("CL"); test: Bioassay on cabbage looper (CL), 128-well diet tray assay; conditions: 168 h, 50 μg/cm^2 on artificial diet, second instar CL larvae, 25° C., five to seven days, average of eight wells, read-out: CL % Control (or Mortality) rating
In short: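 Second-instar larvae (one to five per well) placed on artificial diet surface-treated with 50 μg/cm^2 compound in 90:10 acetone-water, dried before infestation. Held 25 °C, 14:10 light-dark for five to seven days; percent mortality scored per well and averaged over eight wells.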

[3] = system: Green Peach Aphid ("GPA") (Myzus persicae); test: Bioassay on green peach aphid (GPA), foliar spray on cabbage seedlings; conditions: Myzus persicae, foliar, 72 h; 200 ppm spray on infested cabbage seedlings, three days, Abbott corrected % control; read-out: GPA % Control (or Mortality) rating
Description: Certain molecules disclosed in this document were tested against GPA using procedures described in the following example. In the reporting of the results, the “GPA Rating Table” was used (See Table Section).
Cabbage seedlings grown in 3-inch pots, with 2-3 small (3-5 cm) true leaves, were used as test substrate. The seedlings were infested with 20-50 GPA (wingless adult and nymph stages) one day prior to chemical application. Four pots with individual seedlings were used for each treatment. Test compounds (2 mg) were dissolved in 2 mL of acetone/methanol (1:1) solvent, forming stock solutions of 1000 ppm test compound. The stock solutions were diluted 5× with 0.025% Tween 20 in water to obtain the solution at 200 ppm test compound. A hand-held aspirator-type sprayer was used for spraying a solution to both sides of […] leaves until runoff. Reference plants (solvent check) were sprayed with the diluent only containing 20% by volume of acetone/methanol (1:1) solvent. Treated plants were held in a holding room for three days at approximately 25° C. and ambient relative humidity (RH) prior to grading. Evaluation was conducted by counting the number of live aphids per plant under a microscope. Percent Control was measured by using Abbott's correction formula (W. S. Abbott, “A Method of Computing the Effectiveness of an Insecticide” J. Econ. Entomol. 18 (1925), pp. 265-267) as follows. Corrected % Control=100*(X−Y)/X • where • X=No. of live aphids on solvent check plants and • Y=No. of live aphids on treated plants

[4] = system: Yellow Fever Mosquito "YFM" (Aedes aegypti); conditions: about 1 day-old larvae, 96-well plate, room temperature, 3 days, mortality
Description: Certain molecules disclosed in this document were tested against YFM using procedures described in the following paragraph. In the reporting of the results, the “YFM Rating Table” was used (See Table Section).
Master plates containing 400 μg of a molecule dissolved in 100 μL of dimethyl sulfoxide (DMSO) (equivalent to a 4000 ppm solution) are used. A master plate of assembled molecules contains 15 μL per well. To this plate, 135 μL of a 90:10 wateracetone mixture is added to each well. A robot (Biomek® NXP Laboratory Automation Workstation) is programmed to dispense 15 μL aspirations from the master plate into an empty 96-well shallow plate (“daughter” plate). There are 6 reps (“daughter” plates) created per master. The created daughter plates are then immediately infested with YFM larvae.
The day before plates are to be treated, mosquito eggs are placed in Millipore water containing liver powder to begin hatching (4 g. into 400 mL). After the daughter plates are created using the robot, they are infested with 220 μL of the liver powder/larval mosquito mixture (about 1 day-old larvae). After plates are infested with mosquito larvae, a non-evaporative lid is used to cover the plate to reduce drying. Plates are held at room temperature for 3 days prior to grading. After 3 days, each well is observed and scored based on mortality.

Structure (SMILES) | mortality at 50 µg/cm2 [1] [%] | mortality at 50 µg/cm2 [2] [%] | mortality at 200 ppm [3] [%] | YFM % Control (or Mortality) rating [4]
CC(C)c1ccccc1N1C(=O)CS/C1=N\C(=O)NCCc1ccc(-c2ncn(-c3ccc(OC(F)(F)F)cc3)n2)cc1 [F1, (Z)-1-(3-(2-isopropylphenyl)-4-oxothiazolidin-2-ylidene)-3-(4-(1-(4-(trifluoromethoxy)phenyl)-1H-1,2,4-triazol-3-yl)phenethyl)urea] | 50 to 100 | 50 to 100 | 0 | –
Cc1ccc(C(C)C)c(N2C(=O)C(C)S/C2=N\C(=O)NCCc2ccc(-c3ncn(-c4ccc(OC(F)(F)F)cc4)n3)cc2)c1 (stereo not drawn) [P57, (Z)-1-(3-(2-isopropyl-5-methylphenyl)-5-methyl-4-oxothiazolidin-2-ylidene)-3-(4-(1-(4-(trifluoromethoxy)phenyl)-1H-1,2,4-triazol-3-yl)phenethyl)urea] | 50 to 100 | 50 to 100 | – | A (80-100)
Cc1ccc(C(C)C)c(-n2c(C)cs/c2=N\C(=O)NCCc2ccc(-c3ncn(-c4ccc(OC(F)(F)F)cc4)n3)cc2)c1 [P65, (Z)-1-(3-(2-isopropyl-5-methylphenyl)-4-methylthiazol-2(3H)-ylidene)-3-(4-(1-(4-(trifluoromethoxy)phenyl)-1H-1,2,4-triazol-3-yl)phenethyl)urea] | 50 to 100 | 50 to 100 | – | A (80-100)
Cc1ccc(C(C)C)c(N2C(=O)CS/C2=N\C(=O)NC(C)C(C)c2ccc(-c3ncn(-c4ccc(OC(F)(F)F)cc4)n3)cc2)c1 (stereo not drawn) [P66, P353, (Z)-1-(3-(2-isopropyl-5-methylphenyl)-4-oxothiazolidin-2-ylidene)-3-(3-(4-(1-(4-(trifluoromethoxy)phenyl)-1H-1,2,4-triazol-3-yl)phenyl)butan-2-yl)urea] | 50 to 100 | 50 to 100 | – | A (80-100)
CCc1cccc(C)c1N1C(=O)CS/C1=N\C(=O)NCCCc1ccc(-c2ncn(-c3ccc(OC(F)(F)F)cc3)n2)cc1 [P101, (Z)-1-(3-(2-ethyl-6-methylphenyl)-4-oxothiazolidin-2-ylidene)-3-(3-(4-(1-(4-(trifluoromethoxy)phenyl)-1H-1,2,4-triazol-3-yl)phenyl)propyl)urea] | 0 to 50 | 50 to 100 | – | D (No activity noticed in this bioassay)
Cc1ccccc1N1C(=O)CS/C1=N\C(=O)NCCCCc1ccc(-c2ncn(-c3ccc(OC(F)(F)F)cc3)n2)cc1 [P144, (Z)-1-(4-oxo-3-(o-tolyl)thiazolidin-2-ylidene)-3-(4-(4-(1-(4-(trifluoromethoxy)phenyl)-1H-1,2,4-triazol-3-yl)phenyl)butyl)urea] | 50 to 100 | 50 to 100 | – | A (80-100)
CC(C)c1ccccc1N1C(=O)CS/C1=N\C(=O)NCCCCc1ccc(-c2ncn(-c3ccc(OC(F)(F)F)cc3)n2)cc1 [P146, P208, (Z)-1-(3-(2-isopropylphenyl)-4-oxothiazolidin-2-ylidene)-3-(4-(4-(1-(4-(trifluoromethoxy)phenyl)-1H-1,2,4-triazol-3-yl)phenyl)butyl)urea] | 50 to 100 | 50 to 100 | – | A (80-100)
CCCc1ccc(C)cc1N1C(=O)CS/C1=N\C(=O)NCCCCc1ccc(-c2ncn(-c3ccc(OC(F)(F)F)cc3)n2)cc1 [P151, P842, (Z)-1-(3-(5-methyl-2-propylphenyl)-4-oxothiazolidin-2-ylidene)-3-(4-(4-(1-(4-(trifluoromethoxy)phenyl)-1H-1,2,4-triazol-3-yl)phenyl)butyl)urea] | 50 to 100 | 50 to 100 | – | A (80-100)
Cc1cccc(C)c1N1C(=O)CS/C1=N\C(=O)NCCCCc1ccc(-c2ncn(-c3ccc(OC(F)(F)F)cc3)n2)cc1 [P152, P1481, (Z)-1-(3-(2,6-dimethylphenyl)-4-oxothiazolidin-2-ylidene)-3-(4-(4-(1-(4-(trifluoromethoxy)phenyl)-1H-1,2,4-triazol-3-yl)phenyl)butyl)urea] | 0 | 50 to 100 | – | A (80-100)
CCc1cccc(C)c1N1C(=O)CS/C1=N\C(=O)NCCCCc1ccc(-c2ncn(-c3ccc(OC(F)(F)F)cc3)n2)cc1 [P153, (Z)-1-(3-(2-ethyl-6-methylphenyl)-4-oxothiazolidin-2-ylidene)-3-(4-(4-(1-(4-(trifluoromethoxy)phenyl)-1H-1,2,4-triazol-3-yl)phenyl)butyl)urea] | 0 | 50 to 100 | – | D (No activity noticed in this bioassay)
Cc1ccc(N2C(=O)CS/C2=N\C(=O)NCCCCc2ccc(-c3ncn(-c4ccc(OC(F)(F)F)cc4)n3)cc2)c(C(C)C)c1 [P154, (Z)-1-(3-(2-isopropyl-4-methylphenyl)-4-oxothiazolidin-2-ylidene)-3-(4-(4-(1-(4-(trifluoromethoxy)phenyl)-1H-1,2,4-triazol-3-yl)phenyl)butyl)urea] | 50 to 100 | 50 to 100 | – | B (More than 0-Less than 80)
CC(C)c1cc(F)ccc1N1C(=O)CS/C1=N\C(=O)NCCCCc1ccc(-c2ncn(-c3ccc(OC(F)(F)F)cc3)n2)cc1 [P155. P1162, (Z)-1-(3-(4-fluoro-2-isopropylphenyl)-4-oxothiazolidin-2-ylidene)-3-(4-(4-(1-(4-(trifluoromethoxy)phenyl)-1H-1,2,4-triazol-3-yl)phenyl)butyl)urea] | 50 to 100 | 50 to 100 | – | A (80-100)
COc1ccc(C(C)C)c(N2C(=O)CS/C2=N\C(=O)NCCCCc2ccc(-c3ncn(-c4ccc(OC(F)(F)F)cc4)n3)cc2)c1 [P156, P682, (Z)-1-(3-(2-isopropyl-5-methoxyphenyl)-4-oxothiazolidin-2-ylidene)-3-(4-(4-(1-(4-(trifluoromethoxy)phenyl)-1H-1,2,4-triazol-3-yl)phenyl)butyl)urea] | 50 to 100 | 50 to 100 | – | A (80-100)
Cc1ccc(C(C)C)c(N2C(=O)CS/C2=N\C(=O)NCCC#Cc2ccc(-c3ncn(-c4ccc(OC(F)(F)F)cc4)n3)cc2)c1 [P160, (Z)-1-(3-(2-isopropyl-5-methylphenyl)-4-oxothiazolidin-2-ylidene)-3-(4-(4-(1-(4-(trifluoromethoxy)phenyl)-1H-1,2,4-triazol-3-yl)phenyl)but-3-yn-1-yl)urea] | 50 to 100 | 50 to 100 | – | B (More than 0-Less than 80)
CC(C)c1ccccc1N1C(=O)CS/C1=N\C(=O)NCC(C)c1ccc(-c2ncn(-c3ccc(OC(F)(F)F)cc3)n2)cc1 (stereo not drawn) [P205, (Z)-1-(3-(2-isopropylphenyl)-4-oxothiazolidin-2-ylidene)-3-(2-(4-(1-(4-(trifluoromethoxy)phenyl)-1H-1,2,4-triazol-3-yl)phenyl)propyl)urea] | 50 to 100 | 50 to 100 | – | A (80-100)
COc1ccc(C(C)C)c(N2C(=O)CS/C2=N\C(=O)NCC(C)c2ccc(-c3ncn(-c4ccc(OC(F)(F)F)cc4)n3)cc2)c1 (stereo not drawn) [P679, (Z)-1-(3-(2-isopropyl-5-methoxyphenyl)-4-oxothiazolidin-2-ylidene)-3-(2-(4-(1-(4-(trifluoromethoxy)phenyl)-1H-1,2,4-triazol-3-yl)phenyl)propyl)urea] | 50 to 100 | 50 to 100 | – | A (80-100)
